Laboratory results as given in US9650395B2, “Antibacterial compounds and methods for use” (PTC Therapeutics, Inc., priority 2011, dated 2017).
Values after ≈ are worked out from the molar mass of the structure shown. Like-named read-outs stand apart in the source and are kept apart here.

Columns and labels:
[1] = tested on: E. coli ELZ4251 (MDR clinical isolate); assay: Antibacterial activity, MIC, MDR E. coli ELZ4251; assay type: cell-based, Escherichia coli; conditions: E. coli ELZ4251, MDR clinical isolate; for MIC: Escherichia coli, read-out: MIC ELZ4251
[2] = tested on: resistant K. pneumoniae MXX1232 (MDR clinical isolate); assay: Antibacterial activity, MIC, resistant K. pneumoniae MXX1232; assay type: cell-based, Klebsiella pneumoniae; conditions: resistant K. pneumoniae MMX1232, MDR clinical isolate; for MIC: Klebsiella pneumoniae, read-out: MIC MMX1232
[3] = tested on: control Gram-negative E. coli 25922 strain; assay: Antibacterial activity, microbroth dilution MIC, E. coli 25922; assay type: cell-based, Escherichia coli; conditions: E. coli 25922, microbroth dilution; for MIC: Escherichia coli, read-out: MIC, 25922
[4] = tested on: Neisseria meningitidis (N. meningitidis) 13090; assay: Antibacterial activity, MIC, N. meningitidis 13090; assay type: cell-based; conditions: N. meningitidis 13090; for MIC: Neisseria meningitidis, read-out: MIC 13090
[5] = tested on: quinolone resistant E. coli LZ3111; assay: Antibacterial activity, MIC, quinolone resistant E. coli LZ3111; assay type: cell-based, Escherichia coli; conditions: for MIC: Escherichia coli, read-out: MIC, LZ3111
Description: (§1) The antibacterial activity from a microbroth dilution method may be presented as the minimum inhibitory concentration (MIC in […]). The MIC value is the lowest concentration of a drug which prevents macroscopically visible bacterial growth under test conditions.
Mutations in these regions are known to confer a high level resistance to the quinolone class of antibiotics.

[6] = tested on: Haemophilus influenzae (H. influenzae) 49247; assay: Antibacterial activity, MIC, H. influenzae 49247; assay type: cell-based; conditions: H. influenzae 49247; for MIC: Haemophilus influenzae, read-out: MIC 49247
Method in brief: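 A microbroth dilution method gave the minimum inhibitory concentration for each compound against H. influenzae 49247, a Gram-negative bacterium. MIC means the smallest concentration of drug at which no macroscopically visible bacterial growth appears under the conditions of the test.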

[7] = tested on: resistant A. baumannii MXX2240 (MDR clinical isolate); assay: Antibacterial activity, MIC, resistant A. baumannii MXX2240; assay type: cell-based, Acinetobacter baumannii; conditions: resistant A. baumannii MMX2240, MDR clinical isolate; for MIC: Acinetobacter baumannii, read-out: MIC MMX2240
[8] = tested on: E. coli ELZ4000 (MDR clinical isolate); assay: Antibacterial activity, MIC, MDR E. coli ELZ4000; assay type: cell-based, Escherichia coli; conditions: E. coli ELZ4000, MDR clinical isolate; for MIC: Escherichia coli, read-out: MIC ELZ4000
[9] = tested on: Pseudomonas aeruginosa (P. aeruginosa) 27853; assay: Antibacterial activity, MIC, P. aeruginosa 27853; assay type: cell-based; conditions: P. aeruginosa 27853; for MIC: Pseudomonas aeruginosa, read-out: MIC 27853
Description: as §1
Antibacterial activity of test compounds against the Gram-negative bacterium Pseudomonas aeruginosa (P. aeruginosa) 27853 is shown in Table 5.

[10] = tested on: Klebsiella pneumoniae (K. pneumoniae) 35657; assay: Antibacterial activity, MIC, K. pneumoniae 35657; assay type: cell-based; conditions: for MIC: Klebsiella pneumoniae
[11] = tested on: Acinetobacter baumannii (A. baumannii) BAA747; assay: Antibacterial activity, MIC, A. baumannii BAA747; assay type: cell-based; conditions: A. baumannii BAA747; for MIC: Acinetobacter baumannii, read-out: MIC BAA747
[12] = tested on: Moraxella catarrhalis (M. catarrhalis) 25238; assay: Antibacterial activity, MIC, M. catarrhalis 25238; assay type: cell-based; conditions: M. catarrhalis 25238; for MIC: Moraxella catarrhalis, read-out: MIC 25238
[13] = tested on: Gram-positive Staphylococcus aureus (S. aureus) 29213; assay: Antibacterial activity, microbroth dilution MIC, S. aureus 29213; assay type: cell-based; conditions: S. aureus 29213, microbroth dilution; for MIC: Staphylococcus aureus, read-out: MIC, 29213
[14] = tested on: super sensitive Gram-negative Escherichia coli (E. coli) BAS849; assay: Antibacterial activity, microbroth dilution MIC, E. coli BAS849; assay type: cell-based; conditions: for MIC: Escherichia coli, read-out: MIC, BAS849
[15] = E. coli BAS849, microbroth dilution

Row | Compound | MIC [1] | MIC [2] | MIC [3] | MIC [4] | MIC [5] | MIC [6] | MIC [7] | MIC [8] | MIC [9] | MIC [10] | MIC [11] | MIC [12] | MIC [13] | MIC [14, 15] | further results
1 | CCc1c(-c2ccc(N(C)C)nc2)[nH]c(=O)c(C(=O)O)c1O [Cpd 87, 6-[6-(dimethylamino)pyridin-3-yl]-5-ethyl-4-hydroxy-2-oxo-1,2-dihydropyridine-3-carboxylic acid] | 1 to 3.5 µg/mL (≈ 3.3 to 11.5 µM) | 12.5 to 150 µg/mL (≈ 41.2 to 495 µM) | 12.5 to 150 µg/mL (≈ 41.2 to 495 µM) | < 1 µg/mL | 1 to 3.5 µg/mL (≈ 3.3 to 11.5 µM) | 1 to 3.5 µg/mL (≈ 3.3 to 11.5 µM) | < 1 µg/mL | 1 to 3.5 µg/mL (≈ 3.3 to 11.5 µM) | 12.5 to 150 µg/mL (≈ 41.2 to 495 µM) | 12.5 to 150 µg/mL (≈ 41.2 to 495 µM) | 3.5 to 12.5 µg/mL (≈ 11.5 to 41.2 µM) | 1 to 3.5 µg/mL (≈ 3.3 to 11.5 µM) | 12.5 to 150 µg/mL (≈ 41.2 to 495 µM) | < 1 µg/mL | –
2 | CCc1cc(C(=O)O)c(=O)[nH]c1-c1ccc(N(C)C)cc1 [Cpd 88, 6-[4-(dimethylamino)phenyl]-5-ethyl-2-oxo-1,2-dihydropyridine-3-carboxylic acid] | 12.5 to 150 µg/mL (≈ 43.7 to 524 µM) | 12.5 to 150 µg/mL (≈ 43.7 to 524 µM) | < 1 µg/mL | < 1 µg/mL | 12.5 to 150 µg/mL (≈ 43.7 to 524 µM) | 3.5 to 12.5 µg/mL (≈ 12.2 to 43.7 µM) | 12.5 to 150 µg/mL (≈ 43.7 to 524 µM) | 12.5 to 150 µg/mL (≈ 43.7 to 524 µM) | 3.5 to 12.5 µg/mL (≈ 12.2 to 43.7 µM) | < 1 µg/mL | < 1 µg/mL | < 1 µg/mL | 3.5 to 12.5 µg/mL (≈ 12.2 to 43.7 µM) | < 1 µg/mL | –
3 | CCc1c(-c2ccc(N3CCC(CNC)C3)cc2)[nH]c(=O)c(C(=O)O)c1O.Cl (stereo not drawn) [Cpd 254, 5-ethyl-4-hydroxy-6-(4-{3-[(methylamino)methyl]pyrrolidin-1-yl}phenyl)-2-oxo-1,2-dihydropyridine-3-carboxylic acid hydrochloride] | 3.5 to 12.5 µg/mL | 12.5 to 150 µg/mL | 1 to 3.5 µg/mL | 1 to 3.5 µg/mL | 3.5 to 12.5 µg/mL | 12.5 to 150 µg/mL | 12.5 to 150 µg/mL | 12.5 to 150 µg/mL | 3.5 to 12.5 µg/mL | 3.5 to 12.5 µg/mL | 3.5 to 12.5 µg/mL | 12.5 to 150 µg/mL | 12.5 to 150 µg/mL | < 1 µg/mL | –
4 | CCc1c(-c2ccc(N3C[C@H]4CC[C@@H](NC)[C@H]4C3)cc2)[nH]c(=O)c(C(=O)O)c1O.Cl [Cpd 256, 5-ethyl-4-hydroxy-6-{4-[(3aR,4R,6aS)-4-(methylamino)hexahydrocyclopenta[c]pyrrol-2(1H)-yl]phenyl}-2-oxo-1,2-dihydropyridine-3-carboxylic acid hydrochloride] | 3.5 to 12.5 µg/mL | 12.5 to 150 µg/mL | 1 to 3.5 µg/mL | < 1 µg/mL | 1 to 3.5 µg/mL | 3.5 to 12.5 µg/mL | 12.5 to 150 µg/mL | 12.5 to 150 µg/mL | 12.5 to 150 µg/mL | 1 to 3.5 µg/mL | 12.5 to 150 µg/mL | 1 to 3.5 µg/mL | 3.5 to 12.5 µg/mL | < 1 µg/mL | –
5 | CCc1c(-c2ccc(N3CCC(N4CCCC4)C3)cc2)[nH]c(=O)c(C(=O)O)c1O.Cl (stereo not drawn) [Cpd 257, 6-[4-(1,3′-bipyrrolidin-1′-yl)phenyl]-5-ethyl-4-hydroxy-2-oxo-1,2-dihydropyridine-3-carboxylic acid hydrochloride] | 1 to 3.5 µg/mL | 12.5 to 150 µg/mL | < 1 µg/mL | < 1 µg/mL | 3.5 to 12.5 µg/mL | 1 to 3.5 µg/mL | 12.5 to 150 µg/mL | 3.5 to 12.5 µg/mL | 12.5 to 150 µg/mL | 1 to 3.5 µg/mL | 1 to 3.5 µg/mL | 1 to 3.5 µg/mL | 12.5 to 150 µg/mL | < 1 µg/mL | –
6 | CCc1c(-c2ccc(N3C[C@H]4CCC[C@H](N)[C@H]4C3)cc2)[nH]c(=O)c(C(=O)O)c1O.Cl [Cpd 258, 6-{4-[(3aR,4S,7aS)-4-aminooctahydro-2H-isoindol-2-yl]phenyl}-5-ethyl-4-hydroxy-2-oxo-1,2-dihydropyridine-3-carboxylic acid hydrochloride] | 3.5 to 12.5 µg/mL | 12.5 to 150 µg/mL | 1 to 3.5 µg/mL | < 1 µg/mL | < 1 µg/mL | 3.5 to 12.5 µg/mL | 3.5 to 12.5 µg/mL | 12.5 to 150 µg/mL | 12.5 to 150 µg/mL | 1 to 3.5 µg/mL | 12.5 to 150 µg/mL | 1 to 3.5 µg/mL | 3.5 to 12.5 µg/mL | < 1 µg/mL | –
7 | Cc1c(-c2ccc(N3C[C@@H]4[C@@H](N)[C@@H]4C3)cc2)[nH]c(=O)c(C(=O)O)c1O.Cl [Cpd 259, 6-{4-[(1R,5S,6s)-6-amino-3-azabicyclo[3.1.0]hex-3-yl]phenyl}-4-hydroxy-5-methyl-2-oxo-1,2-dihydropyridine-3-carboxylic acid hydrochloride] | – | – | – | – | – | – | – | – | – | – | – | – | – | – | MIC ELZ4251 [1]: ** (an MIC value between >3.5 μg/mL and ≦12.5 μg/mL is indicated by two stars (**)); MIC MMX1232 [2]: * (an MIC value between >12.5 μg/mL and ≦150 μg/mL is indicated by a single star (*)); MIC, 25922 [3]: *** (an MIC value between >1.0 μg/mL and ≦3.5 μg/mL is indicated by three stars (***)); MIC 13090 [4]: **** (an MIC value of ≦1.0 μg/mL is indicated by four stars (****)); MIC, LZ3111 ([5]; quinolone resistant E. coli LZ3111): *** (an MIC value between >1.0 μg/mL and ≦3.5 μg/mL is indicated by three stars (***)); MIC 49247 [6]: *** (an MIC value between >1.0 μg/mL and ≦3.5 μg/mL is indicated by three stars (***)); MIC MMX2240 [7]: * (an MIC value between >12.5 μg/mL and ≦150 μg/mL is indicated by a single star (*)); MIC ELZ4000 [8]: ** (an MIC value between >3.5 μg/mL and ≦12.5 μg/mL is indicated by two stars (**)); MIC 27853 [9]: * (an MIC value between >12.5 μg/mL and ≦150 μg/mL is indicated by a single star (*)); MIC 35657 [10]: *** (an MIC value between >1.0 μg/mL and ≦3.5 μg/mL is indicated by three stars (***)); MIC BAA747 [11]: ** (an MIC value between >3.5 μg/mL and ≦12.5 μg/mL is indicated by two stars (**)); MIC 25238 [12]: ** (an MIC value between >3.5 μg/mL and ≦12.5 μg/mL is indicated by two stars (**)); MIC, 29213 [13]: * (an MIC value between >12.5 μg/mL and ≦150 μg/mL is indicated by a single star (*)); MIC, BAS849 [14, 15]: **** (an MIC value of ≦1.0 μg/mL is indicated by four stars (****))
8 | CCc1c(-c2ccc(N3C[C@H]4CCC[C@@H](N(C)C)[C@H]4C3)cc2)[nH]c(=O)c(C(=O)O)c1O.Cl [Cpd 261, 6-{4-[(3aR,4R,7aS)-4-(dimethylamino)octahydro-2H-isoindol-2-yl]phenyl}-5-ethyl-4-hydroxy-2-oxo-1,2-dihydropyridine-3-carboxylic acid hydrochloride] | 3.5 to 12.5 µg/mL | 12.5 to 150 µg/mL | 3.5 to 12.5 µg/mL | < 1 µg/mL | 1 to 3.5 µg/mL | 12.5 to 150 µg/mL | 12.5 to 150 µg/mL | 12.5 to 150 µg/mL | 12.5 to 150 µg/mL | 12.5 to 150 µg/mL | 12.5 to 150 µg/mL | 3.5 to 12.5 µg/mL | 3.5 to 12.5 µg/mL | < 1 µg/mL | –
9 | CCc1c(-c2ccc(N3C[C@H]4CCC[C@@H](N)[C@H]4C3)cc2)[nH]c(=O)c(C(=O)O)c1O.O=C(O)C(F)(F)F [Cpd 262, 6-{4-[(3aR,4R,7aS)-4-aminooctahydro-2H-isoindol-2-yl]phenyl}-5-ethyl-4-hydroxy-2-oxo-1,2-dihydropyridine-3-carboxylic acid trifluoroacetate] | 1 to 3.5 µg/mL | 12.5 to 150 µg/mL | 1 to 3.5 µg/mL | 1 to 3.5 µg/mL | < 1 µg/mL | 3.5 to 12.5 µg/mL | 1 to 3.5 µg/mL | 1 to 3.5 µg/mL | 12.5 to 150 µg/mL | 1 to 3.5 µg/mL | 3.5 to 12.5 µg/mL | 3.5 to 12.5 µg/mL | 3.5 to 12.5 µg/mL | – | MIC [14]: < 1 µg/mL
